Test results from US6268391A, “Benzylidene-1,3-dihydro-indol-2-one derivatives a receptor tyrosine kinase inhibitors, particularly of Raf kinases” (Glaxo Wellcome Inc., priority 1997, dated 2001).

Tests used:
Human cRaf1 = molecular target: T1, Human cRaf1 (Homo sapiens, UniProt P04049); assay: Raf kinase assay (cRaf1 assay / Raf/MEK cascade assay); type: biochemical; details: Table 3; read-out: Raf Kinase activity
T1 construct: poly-histidine (C); made in house

SW620 xenograft = assay: Anti-tumor study in mice, SW620 xenograft; type: in vivo; details: 50 mg/kg
Description: Mice are acquired from Taconic Farms and are maintained in Microisolator cages at 72±2° F. with a 12 hour light/dark cycle. Animals are housed at 4 mice per cage (28×17×12 cm ) and are given food and water ad libitum. Animals are numbered through the use of an ear punch or tail tattoo. All animal handling is done in a laminar flow hood.
SW620, available from the American Type Culture Collection, are grown in media consisting of RPMI 1640 with fetal bovine serum (10%), sodium pyruvate (1.0 mM) and glutamine (2.0 mM). Cells are incubated at 37° C. in 5% CO2. Cells are harvested with trypsin (0.05%), centrifuged, and resuspended in PBS:matrigel (1:1) at 1×10^7 cell/ml.
One of the tumor cell lines used is the colon line SW620. Tumors are initiated by subcutaneous injection of a cell suspension into the right flank of each mouse. The inoculum consists of 2×10^6 cells/mouse/ 0.2 ml in PBS:matrigel (1:1).
Solid tumors are measured by caliper measurement through the skin. Caliper measurements are typically made twice weekly. Tumor weight is calculated using the equation (length×width^2 /2)=mg tumor weight.
Compounds are prepared in a vehicle consisting of DMSO, Cremophore and PBS.
Drug therapy begins when the average tumor size is approximately 40-50 mg, which usually is day 7 after implant. […] Drugs are administered at 3 or 4 dose-levels based upon the previously-determined maximally tolerated dose. […]

T1 sequence (P04049 whole entry): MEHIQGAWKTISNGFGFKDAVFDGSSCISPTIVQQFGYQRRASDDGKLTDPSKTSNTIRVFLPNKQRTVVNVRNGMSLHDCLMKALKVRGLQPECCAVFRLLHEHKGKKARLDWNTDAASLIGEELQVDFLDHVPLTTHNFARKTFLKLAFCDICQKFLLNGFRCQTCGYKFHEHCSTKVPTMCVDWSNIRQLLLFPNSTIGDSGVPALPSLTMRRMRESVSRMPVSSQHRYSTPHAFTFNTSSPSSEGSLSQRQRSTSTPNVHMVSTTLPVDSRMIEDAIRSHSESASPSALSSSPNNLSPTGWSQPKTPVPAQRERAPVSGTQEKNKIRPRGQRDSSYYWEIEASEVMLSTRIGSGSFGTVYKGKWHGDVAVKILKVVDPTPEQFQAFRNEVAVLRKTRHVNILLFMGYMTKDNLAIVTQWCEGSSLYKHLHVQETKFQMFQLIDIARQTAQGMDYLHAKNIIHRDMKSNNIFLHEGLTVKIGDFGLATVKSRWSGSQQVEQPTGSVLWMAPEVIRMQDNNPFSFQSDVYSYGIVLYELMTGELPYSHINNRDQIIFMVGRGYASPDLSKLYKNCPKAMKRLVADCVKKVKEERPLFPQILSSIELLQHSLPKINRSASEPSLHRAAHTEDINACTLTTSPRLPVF

CCN(CC)CC(=O)c1ccc2c(c1)C(=Cc1cc(Cl)c(O)c(Cl)c1)C(=O)N2 [Example 85, 3-(3,5-Dichloro-4-hydroxy-benzylidene)-5-(2-diethylamino-acetyl)-1,3-dihydro-indol-2-one]
IC50 (Human cRaf1): < 1 µM | Tumor Response % Inhibition @ mg/kg (SW620 xenograft): 40%
